Patent US11191761B2, “SOMCL-9112 solid dispersion and preparation method thereof and SOMCL-9112 solid preparation containing SOMCL-9112 solid dispersion” (SHANGHAI INSTITUTE OF MATERIA MEDICA, CHINESE ACADEMY OF …, priority 2015, dated 2021)
In brackets after ≈: the same amount, converted by molar mass.

Key:
[1] = target: poly-ADP-ribose polymerase (PARP) (Homo sapiens, UniProt P09874); conditions: in words, no data shown; cited from earlier work
[2] = Equilibrium solubility test (24 h, HPLC); assay type: physicochemical; conditions: thermodynamic from solid; for solubility thermodynamic at 24 h: 37° C., 100 rpm
Protocol: Equilibrium Solubility Test: The solubility of SOMCL9112 in a series of solvents was investigated. The main solvents included water, pH 1.2 simulated gastric fluid, pH 4.5 phosphate buffer, and pH 6.8 simulated intestinal fluid. 0.5 g of SOMCL-9112 API was taken and added to 100 ml of each of the above solvents. The mixture was shaken at 37° C. shaker at 100 rpm for 24 h. The supernatant was centrifuged at 8000 rpm for 15 min and the concentration of SOMCL-9112 was determined by HPLC.

[3] = tested on: Caco-2 cell model; assay: in vitro
Protocol: (§1) Permeability Test: The permeability of SOMCL-9112 was evaluated using Caco-2 cell model.

[4] = tested on: P-gp; assay: in vitro; conditions: human
Protocol: as §1

[5] = in vitro; conditions: human
Protocol: as §1

[6] = Solubility of SOMCL-9112 API and solid dispersions in water and buffers (37° C., shaking); assay type: physicochemical; conditions: for solubility at 8 h: 37 °C, thermodynamic from solid
Protocol: The SOMCL-9112 solid dispersion prepared in this Example and the SOMCL-9112 API powder were dissolved in water, simulated gastric fluid (pH 1.2), phosphate buffer (pH 4.5) and simulated intestinal fluid (pH6.8) to measure the solubility of SOMCL-9112 (37° C., shaking at 100 rpm for 8 h). The solid dispersion was sampled at 4 h and 8 h.
The SOMCL-9112 solid dispersion prepared in this example was dissolved in water, simulated gastric fluid (pH 1.2), phosphate buffer (pH 4.5) and simulated intestinal fluid (pH6.8) to measure the solubility of SOMCL-9112 (37° C., shaking at 100 rpm for 8 h).
The SOMCL-9112 solid dispersion prepared in this example was dissolved in a simulated intestinal fluid (pH6.8) to measure the solubility of SOMCL-9112 (37° C., shaking at 100 rpm for 8 h).

Sequence of poly-ADP-ribose polymerase (PARP) (P09874 whole entry): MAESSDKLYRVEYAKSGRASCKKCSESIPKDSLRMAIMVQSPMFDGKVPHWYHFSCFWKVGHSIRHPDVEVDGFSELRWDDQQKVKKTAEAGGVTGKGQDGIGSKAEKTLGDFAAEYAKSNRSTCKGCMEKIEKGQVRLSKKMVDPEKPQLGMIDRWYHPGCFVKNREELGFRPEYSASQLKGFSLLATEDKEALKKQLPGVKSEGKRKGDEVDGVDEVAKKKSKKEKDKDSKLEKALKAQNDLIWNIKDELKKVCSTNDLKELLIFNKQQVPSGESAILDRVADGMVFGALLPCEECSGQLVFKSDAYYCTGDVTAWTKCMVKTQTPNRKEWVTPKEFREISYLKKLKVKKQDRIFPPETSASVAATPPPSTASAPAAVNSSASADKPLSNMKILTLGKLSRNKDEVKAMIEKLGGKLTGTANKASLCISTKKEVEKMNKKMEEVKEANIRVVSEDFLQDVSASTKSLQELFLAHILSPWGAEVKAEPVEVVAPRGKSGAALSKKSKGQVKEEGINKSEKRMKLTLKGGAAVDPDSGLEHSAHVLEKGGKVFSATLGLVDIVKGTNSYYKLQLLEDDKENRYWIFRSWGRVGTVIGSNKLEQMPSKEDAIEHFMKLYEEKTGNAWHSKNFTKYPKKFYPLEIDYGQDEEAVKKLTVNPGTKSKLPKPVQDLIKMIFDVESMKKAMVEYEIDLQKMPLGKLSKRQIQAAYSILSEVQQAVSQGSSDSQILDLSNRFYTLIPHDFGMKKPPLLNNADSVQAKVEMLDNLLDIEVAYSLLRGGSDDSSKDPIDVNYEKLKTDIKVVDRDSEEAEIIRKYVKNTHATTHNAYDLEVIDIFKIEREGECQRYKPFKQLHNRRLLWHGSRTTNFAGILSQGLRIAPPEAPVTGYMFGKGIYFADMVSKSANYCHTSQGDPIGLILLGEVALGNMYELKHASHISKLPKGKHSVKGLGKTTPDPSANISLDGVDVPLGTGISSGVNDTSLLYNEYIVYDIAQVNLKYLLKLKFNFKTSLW

Question: For `CC1CN(C(=O)c2cc(Cc3n[nH]c(=O)c4ccccc34)ccc2F)Cc2nnc(C(F)(F)F)n21` (stereo not drawn) [SOMCL-9112, 4-(4-fluoro-3-(5-methyl-3-(trifluoromethyl)-5,6,7,8-4H-[1,2,4]triazolo[4,3-a]piperazine-7-carbonyl)benzyl)phthalazin-1(2H)-one], which “Inhibitory effect on PARP” value [1] is on record?
Answer: significant inhibitory effect

Question: What about the solubility thermodynamic ([2]; 37 °C, aqueous buffer, pH 1.2-6.8 buffer saline solution) of the same molecule?
Answer: < 100 µg/mL

Question: What about the solubility thermodynamic at 24 h ([2]; aqueous buffer, pH 4.5 phosphate buffer) of the same molecule?
Answer: 18.6 µg/mL (≈ 38.2 µM)

Question: What about the solubility thermodynamic at 24 h ([2]; fassgf or other biorelevant, pH 6.8 simulated intestinal fluid) of the same molecule?
Answer: 16.2 µg/mL (≈ 33.3 µM)

Question: And the solubility thermodynamic at 24 h ([2]; pH 1.2 simulated gastric fluid)?
Answer: 10.3 µg/mL (≈ 21.2 µM)

Question: What about the solubility thermodynamic at 24 h ([2]; water) of the same molecule?
Answer: 14.8 µg/mL (≈ 30.4 µM)

Question: What about the Permeability characteristic [3] of the same molecule?
Answer: low permeability characteristic

Question: What about the efflux ratio at 2 μM ([4]; Caco-2) of the same molecule?
Answer: 22.6

Question: What about the efflux ratio at 10 μM ([4]; Caco-2) of the same molecule?
Answer: 61.9

Question: And the efflux ratio at 50 μM ([4]; Caco-2)?
Answer: 54.5

Question: What about the Papp A→B at 2 μM ([5]; Caco-2) of the same molecule?
Answer: 0.72 ×10⁻⁶ cm/s

Question: What about the Papp A→B at 10 μM ([5]; Caco-2) of the same molecule?
Answer: 0.26 ± 0.03 ×10⁻⁶ cm/s

Question: And the Papp A→B at 50 μM ([5]; Caco-2)?
Answer: 0.34 ± 0.06 ×10⁻⁶ cm/s

Question: And the Papp B→A at 2 μM ([5]; Caco-2)?
Answer: 16.3 ± 0.34 ×10⁻⁶ cm/s

Question: And the Papp B→A at 10 μM ([5]; Caco-2)?
Answer: 16.1 ± 1.05 ×10⁻⁶ cm/s

Question: And the Papp B→A at 50 μM ([5]; Caco-2)?
Answer: 18.7 ± 0.28 ×10⁻⁶ cm/s

Question: And the solubility at 8 h ([6]; pH 1.2, simulated gastric fluid)?
Answer: 10.5 µg/mL (≈ 21.6 µM)

Question: And the solubility at 8 h ([6]; pH 4.5, aqueous buffer)?
Answer: 18.9 µg/mL (≈ 38.9 µM)

Question: And the solubility at 8 h ([6]; pH 6.8, fassgf or other biorelevant)?
Answer: 15.4 µg/mL (≈ 31.7 µM)

Question: What about the solubility at 8 h ([6]; water) of the same molecule?
Answer: 15.8 µg/mL (≈ 32.5 µM)

Question: What about the solubility ([6]; fassgf or other biorelevant) of the same molecule?
Answer: ~10 µg/mL (≈ 20.6 µM)

Question: Which efflux ratio [4] does the source give for `C[C@H]1O[C@@H](O[C@H]2[C@@H](O)C[C@H](O[C@H]3[C@@H](O)C[C@H](O[C@H]4CC[C@@]5(C)[C@H](CC[C@@H]6[C@@H]5C[C@@H](O)[C@]5(C)[C@@H](C7=CC(=O)OC7)CC[C@]65O)C4)O[C@@H]3C)O[C@@H]2C)C[C@H](O)[C@@H]1O` [Digoxin, reference compound] here?
Answer: 109

Question: What about the Papp A→B [5] of the same molecule?
Answer: 0.09 ± 0.01 ×10⁻⁶ cm/s

Question: And the Papp B→A [5]?
Answer: 9.88 ± 1.41 ×10⁻⁶ cm/s

Question: Which efflux ratio [4] does the source give for `CC(C)NCC(O)COc1cccc2ccccc12` (stereo not drawn) [Propranolol, reference compound] here?
Answer: 0.72

Question: What about the Papp A→B [5] of the same molecule?
Answer: 10.5 ± 1.97 ×10⁻⁶ cm/s

Question: What about the Papp B→A [5] of the same molecule?
Answer: 7.57 ± 0.6 ×10⁻⁶ cm/s
